Measurements taken from article PMC6152194 (Molecules : A Journal of Synthetic Chemistry and Natural …, 2017).
Several values for one entry are separate records, joined by “and”; a condition that tells them apart may be missing. Equal entries are not always repeated. Where two headings read alike, the source gives them in different places.

Experiments:
horse BChE [1] = target: T1, horse BChE (Equus caballus, UniProt P81908); assay: biochemical; type: biochemical; settings: for type of inhibition: hydrolysis of 50 μM BSCh, progress curves to 600 s; for Kon: pH 7.0
T1 construct: purchased Worthington Biochemical Corporation
From the text: Purified horse BChE was from Worthington Biochemical Corporation, dithio-bis-di-nitro benzoic acid and butyrylthiocholine iodide (BSCh) were from Sigma, tetramethylammonium iodide (TMA), tetraethylammonium iodide (TEA), edrophonium chloride (EDR), and methanesulfonylfluoride (MSF) were from BDH; decamethonium bromide (DME) was from Koch Light Laboratories; sodium fluoride and d-Tubocurarine were from Fluka AG. N-((1-benzylpiperidin-3-yl)methyl)-N-methylnaphthalene-2-sulfonamide (942) was synthesized in the Faculty of Pharmacy, University of Ljubljana (Ljubljana, Slovenia). All other reagents used were of analytical grade. The experiments were carried out at 25 °C in 25 mM phosphate buffer, pH 7.0.
A series of compounds were tested by measuring the progress curves for BSCh hydrolysis by horse BChE in the absence and presence of each compound at a single concentration over 10 min, in a 0.6 mL cuvette, using the method of Ellman et al.. […] The concentration of horse BChE, which was always added last, was ~1 nM, for hydrolysis of 50 μM BSCh to completion (in most cases), in the presence of 1 mM dithio-bis-di-nitro benzoic acid. Reaching the plateau was important to get an exact estimate of the actual initial BSCh concentration. This was achieved by conversion of the change in absorbance at 412 nm of the resulting thio-nitro benzoate, using a molar absorption coefficient of 13,800 mol^−1 cm^−1. All of the measurements were conducted using a conventional spectrophotometer (Lambda 45/Vis; Perkin-Elmer), and a 10-s lag period was added before the start of each measurement. The progress curves were then extrapolated to start at the origin prior to the analysis.
The progress-curve analysis was performed using the ENZO web application (Figure 2), implemented at www.enzo.cmm.ki.si. For rapid determination of the kinetics mechanisms and parameters, the Van Slyke–Cullen reaction scheme for substrate hydrolysis by horse BChE was combined with a reversible competitive inhibition mechanism, as expected for active-site-directed ligands. […] In the initial evaluation, all of the second-order binding rate constants (kon’s), although not the constant for MSF, were set to the diffusion rate-limited value of 2 ×10^8 M^−1 s^−1. Therefore, only the first-order dissociation rate constants, together with the substrate specificity constant kcat/Km, the initial substrate concentration, and the added horse BChE active-site concentration, had to be evaluated. The kcat of 663 s^−1 for the hydrolysis of BSCh by horse BChE was taken from a previous study performed under the same conditions.
Therefore, a similar experiment was performed, but in the presence of three additional sodium fluoride concentrations (0.25, 1, 2.5 mM). Each of these measurements was performed twice in a row to determine the reliability of the data obtained. The progress curve analysis was then performed using four types of classical inhibition mechanisms: competitive, uncompetitive, non-competitive, and mixed. Again, a 10-s lag period was added to the time-course of each measurement prior to the analysis using the ENZO web application.

horse BChE [2] = target: T1, horse BChE; settings: hydrolysis of BSCh by horse BChE, same conditions; cited from earlier work
[3] = slow isomerization step after instantaneous binding, 50 μM BSCh
[4] = 50 μM BSCh, 25 °C, 25 mM phosphate buffer pH 7.0, single progress curve, competitive mechanism, read-out: Ki

T1 sequence (P81908 whole entry): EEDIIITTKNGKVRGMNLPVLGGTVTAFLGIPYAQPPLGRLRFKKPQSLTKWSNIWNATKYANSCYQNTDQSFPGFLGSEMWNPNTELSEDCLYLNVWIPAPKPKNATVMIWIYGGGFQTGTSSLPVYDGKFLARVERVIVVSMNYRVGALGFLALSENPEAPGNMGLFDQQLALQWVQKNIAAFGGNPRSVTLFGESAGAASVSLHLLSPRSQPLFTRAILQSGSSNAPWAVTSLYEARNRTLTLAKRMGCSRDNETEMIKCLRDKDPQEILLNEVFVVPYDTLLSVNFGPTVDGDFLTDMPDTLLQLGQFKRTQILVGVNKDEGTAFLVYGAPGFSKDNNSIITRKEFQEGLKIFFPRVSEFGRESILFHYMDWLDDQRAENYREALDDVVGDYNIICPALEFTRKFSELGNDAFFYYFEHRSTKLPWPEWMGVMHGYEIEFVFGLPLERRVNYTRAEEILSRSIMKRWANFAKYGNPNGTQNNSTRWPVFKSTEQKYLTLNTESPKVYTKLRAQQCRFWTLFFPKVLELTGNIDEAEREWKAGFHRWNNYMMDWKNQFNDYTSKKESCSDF

Question: Which Ki (horse BChE [1]) does the source give for COc1cc2c3cc1Oc1cc(ccc1O)C[C@@H]1c4c(cc(OC)c(O)c4Oc4ccc(cc4)C[C@@H]3N(C)CC2)CC[N+]1(C)C [d-Tubocurarine] here?
Answer: 5.1 µM

Question: What about the type of inhibition (horse BChE [1]) of the same compound?
Answer: slow binder

Question: What about the “K+isomerization” value (horse BChE [1]; [3]) of the same compound?
Answer: 0.029 s⁻¹

Question: And the K-isomerization (horse BChE [1]; [3])?
Answer: 0.010 s⁻¹

Question: For CC[N+](C)(C)c1cccc(O)c1 [Edrophonium, edrophonium chloride], which Ki (horse BChE [1]) is on record?
Answer: 21 µM

Question: And the type of inhibition (horse BChE [1])?
Answer: reversible competitive inhibitors

Question: Which kcat (horse BChE [2]) does the source give for CCCC(=O)SCC[N+](C)(C)C.[I-] [BSCh, butyrylthiocholine iodide] here?
Answer: 663 s⁻¹

Question: With [F-].[Na+] [Sodium fluoride, sodium fluoride] as the compound, how does the Ki (horse BChE [1]; competitive component of mixed inhibition, from Figure 3, 0.25, 0.5, 1 and 2.5 mM sodium fluoride, 50 μM BSCh, read-out: Ki) read?
Answer: 830 µM

Question: And the type of inhibition (horse BChE [1])?
Answer: mixed reversible inhibitor

Question: And the “uncompetitive component stronger than the competitive component” value (horse BChE [1]; mixed inhibition model, Table 1)?
Answer: 2.4 fold

Question: What about the Kii (horse BChE [1]; uncompetitive component of mixed inhibition, from Figure 3, 0.25, 0.5, 1 and 2.5 mM sodium fluoride, 50 μM BSCh) of the same compound?
Answer: 0.34 mM

Question: For C[N+](C)(C)C.[I-] [Tetramethylammonium, tetramethylammonium iodide], which Ki (horse BChE [1]; [4]) is on record?
Answer: 2400 µM

Question: What about the type of inhibition (horse BChE [1]) of the same compound?
Answer: reversible competitive inhibitors

Question: What does the source list for C[N+](C)(C)CCCCCCCCCC[N+](C)(C)C [Decamethonium, decamethonium bromide]?
Answer: Ki (horse BChE [1]): 7.6 µM; type of inhibition (horse BChE [1]): reversible competitive inhibitors

Question: Which type of inhibition (horse BChE [1]) does the source give for CS(=O)(=O)F [Methanesulfonylfluoride, methanesulfonylfluoride] here?
Answer: irreversible inhibitor

Question: And the Kon (horse BChE [1]; irreversible inhibition step, 15 mM MSF, 50 μM BSCh, 25 °C)?
Answer: 0.39 s⁻¹

Question: With CN(CC1CCCN(Cc2ccccc2)C1)S(=O)(=O)c1ccc2ccccc2c1 (centres unmarked) [compound 942, N-((1-benzylpiperidin-3-yl)methyl)-N-methylnaphthalene-2-sulfonamide] as the compound, how does the Kon (horse BChE [1]; association rate constant, 50 μM BSCh, 25 °C) read?
Answer: 6.2e+07 M⁻¹ s⁻¹ and 6.2 M⁻¹ s⁻¹

Question: And the type of inhibition (horse BChE [1])?
Answer: tight binder

Question: And the Ki (horse BChE [1]; read-out: Ki)?
Answer: 0.00043 µM

Question: For [I-].[Na+] [sodium iodide], which “inhibition of BSCh hydrolysis” value (horse BChE [1]; at 0.5 mM, data not shown) is on record?
Answer: no inhibition

Question: Which Ki (horse BChE [1]; [4]) does the source give for CC[N+](CC)(CC)CC.[I-] [Tetraethylammonium, tetraethylammonium iodide] here?
Answer: 1500 µM

Question: And the type of inhibition (horse BChE [1])?
Answer: reversible competitive inhibitors
